This is an account of results in ChEMBL document CHEMBL3596190, “Non-classical -carbonic anhydrase inhibitors-towards novel anti-mycobacterials” (Medchemcomm, 2014).

Structures are written as SMILES. Converted amounts (≈) assume the structure as drawn. The source made the active and inactive calls. No cut-off for these calls is given here.

Experiment [1] relates to Mycobacterium tuberculosis. Description: Effect on quaternary structure of un-tagged Mycobacterium tuberculosis beta-carbonic anhydrase Rv3588c at pH 6.0 by size exclusion chromatography.
In experiment [2] the test system is Mycobacterium tuberculosis. Nature of the experiment: Effect on quaternary structure of un-tagged Mycobacterium tuberculosis beta-carbonic anhydrase Rv3588c at pH 8.5 by size exclusion chromatography. A general note: Size exclusion chromatography separates by hydrodynamic size, large species first.
The subject of experiment [3] is BL21-AI. Nature of the experiment: Inhibition of His6-tagged Mycobacterium tuberculosis Rv3588c expressed in Escherichia coli BL21-AI cells assessed as increase in Hill coefficient at 25 uM by stopped flow CO2 hydration assay based Michaelis-Menten analysis.
A short description of experiment [4]: Inhibition of His6-tagged Mycobacterium tuberculosis Rv3588c expressed in Escherichia coli BL21-AI cells by stopped flow CO2 hydration assay based Michaelis-Menten analysis. Type of experiment: cell-based.
The subject of experiment [5] is Mycobacterium tuberculosis. Description: Growth inhibition of Mycobacterium tuberculosis H37Ra incubated for 7 days by resazurin dye based fluorescence assay. Type of experiment: functional. Particulars: 168 h.
Experiment [6] deals with T1, Beta-carbonic anhydrase 1 (Mycobacterium tuberculosis) (UniProt P9WPJ7).
T1 sequence (whole entry): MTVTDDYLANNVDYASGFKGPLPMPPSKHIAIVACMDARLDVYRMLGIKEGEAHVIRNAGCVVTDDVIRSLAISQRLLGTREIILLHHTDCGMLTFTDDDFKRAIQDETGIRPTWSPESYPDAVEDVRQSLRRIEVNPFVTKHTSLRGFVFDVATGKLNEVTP
Nature of the experiment: Binding affinity to His6-tagged Mycobacterium tuberculosis Rv1284 expressed in Escherichia coli BL21-AI cells assessed as […] in melting temperature at 250 uM by SYPRO orange dye based differential scanning fluorimetry. (Differential scanning fluorimetry follows unfolding on heating by fluorescence.)

Experiment [7] has as its system BL21-AI. To be noted: Mycobacterium tuberculosis, at 25 µM.
Description: Inhibition of His6-tagged Mycobacterium tuberculosis Rv3588c expressed in Escherichia coli BL21-AI cells assessed as reduction in Vmax at 25 uM by stopped flow CO2 hydration assay based Michaelis-Menten analysis

The term Ki denotes the dissociation constant of the complex between target and ligand, obtained from inhibition or displacement. High values mean lower affinity, low ones higher affinity. For orientation: MIC90 means an inhibitory concentration at the 90% level, which refers to growth in some studies and to a panel of isolates in others. Lower therefore signals higher susceptibility. As for `COc1c(Br)cc(C/C(=N\O)C(=O)NCCCC(=O)N(C)CCCCN(C)CCCNC(=O)/C(Cc2cc(Br)c(OC)c(Br)c2)=N/O)cc1Br` [SPERMATINAMINE], the outcome in experiment [1] and in experiment [2] was inactive. For the same compound, in the experiment with BL21-AI [3], the inhibition result was “Active”. Also, in experiment [4], the affinity corresponds to a Ki of 23 µM. Besides, the MIC90 in experiment [5] is 6.3 µM (≈ 6.03 µg/mL). The deltaTm in experiment [6] was 1.2 K.
With `N#C[S-].[Na+]` [THIOCYANATE SODIUM], the Ki in experiment [4] amounted to 8 µM. Also, the inhibition entry in the experiment on BL21-AI [7] was “Active”.
Regarding `COc1c(Br)cc(/C=C/C(=O)NCCCNCCCCNCCCNC(=O)/C=C/c2cc(Br)c(OC)c(Br)c2)cc1Br` [IANTHELLIFORMISAMINE C], the outcome in experiment [1] and in experiment [2] was inactive. The inhibition result in the experiment on BL21-AI [3] and with BL21-AI [7] was “Active” each time. Further, the affinity in experiment [4], expressed as Ki, was 16 µM. Also, the MIC90 in experiment [5] came out at 12.5 µM (≈ 10.5 µg/mL). Further, in experiment [6], the deltaTm worked out at 1 K.
For the compound `C=C1CC[C@@H](C/C=C(\C)CC/C=C(/CCC=C(C)C)C(=O)O)C(C)(C)[C@H]1CC/C(C)=C/C(=O)O`, the result in experiment [1] and in experiment [2] was inactive. For the same compound, the inhibition result with BL21-AI [3] and in the experiment with BL21-AI [7] was “Active” each time. The Ki in experiment [4] is 10 µM. In addition, in experiment [5], the MIC90 is more than 50 µM. Further, the deltaTm in experiment [6] came to 5.4 K.
